Test results as given in the NIST ThermoML archive (doi:10.1021/acs.jced.6b00430).
± gives the expanded uncertainty stated by the source.

Columns and labels:
[1] = 100 kPa, Liquid; for viscosity: Concentric cylinders viscometry; for mass density: Vibrating tube method
[2] = xn = mol fraction of the nth substance listed; conditions: 100 kPa, Liquid, x2 = 0; for mass density: Vibrating tube method

CN(C)C=O [dimethylformamide]
[1]
Conditions | mass density [kg/m3] | viscosity [mPa·s]
298.15 K | 943.92 ± 10 | 0.783 ± 0.047
308.15 K | 934.35 ± 10 | 0.699 ± 0.042
318.15 K | 924.72 ± 10 | 0.623 ± 0.038
328.15 K | 915.06 ± 10 | 0.555 ± 0.034
338.15 K | 905.35 ± 10 | 0.495 ± 0.03
348.15 K | 895.57 ± 10 | –

O [water]
[1]
Conditions | mass density [kg/m3] | viscosity [mPa·s]
298.15 K | – | 0.89 ± 0.054
308.15 K | – | 0.719 ± 0.044
318.15 K | – | 0.596 ± 0.036
328.15 K | 985.69 ± 10 | 0.504 ± 0.031
338.15 K | 980.55 ± 10 | 0.434 ± 0.026

O [water] + O=[PH](O)O
[2], Capillary tube (Ostwald / Ubbelohde) method
Conditions | viscosity [mPa·s]
298.15 K | 0.89 ± 0.054
308.15 K | 0.719 ± 0.043
318.15 K | 0.596 ± 0.036
328.15 K | 0.504 ± 0.03
338.15 K | 0.434 ± 0.026

[2]
Conditions | mass density [kg/m3]
328.15 K | 985.69 ± 10
338.15 K | 980.55 ± 10

CN(C)C=O [dimethylformamide] + O=[PH](O)O
[2], Concentric cylinders viscometry
Conditions | viscosity [mPa·s]
298.15 K | 0.783 ± 0.047
308.15 K | 0.699 ± 0.042
318.15 K | 0.623 ± 0.038
328.15 K | 0.555 ± 0.034
338.15 K | 0.495 ± 0.03

[2]
Conditions | mass density [kg/m3]
298.15 K | 943.92 ± 10
308.15 K | 934.35 ± 10
318.15 K | 924.72 ± 10
328.15 K | 915.06 ± 10
338.15 K | 905.35 ± 10
348.15 K | 895.57 ± 10
